From patent publication US8748480B2, “Methods for treating opioid tolerance” (priority 2005, dated 2014)

How the values were obtained:
[1] = biological target: T1, wild-type b-Gβ1γ2 (Fαi1 binding) (Rattus norvegicus, UniProt P54311); assay: Flow cytometry competition for FITC-Gαi1 binding to immobilized wild-type b-βγ; details: Log [SIGK] M −7
T1 construct: made in house; host or cells: Sf9 insect cells (baculovirus) for b-βγ
From the text: (§1) Wild-type Gβ1 and Gβ1 mutants were made in the baculovirus vector PDW464 which encodes a biotinylation site at a lysine upstream of the amino terminus of Gβ1 (Goubaeva, et al. (2003) supra). Mutants were generated by overlap extension PCR using standard protocols. The wild-type and mutant Gβ1 constructs consisted of a 20 amino acid biotin acceptor peptide (BAP) sequence fused in-frame with the amino-terminus of rat Gβ1 subunit. When coexpressed with biotin holoenzyme synthetase (BirA) in Sf9 cells, the Gβ1 subunit becomes covalently biotinylated in vivo at the Specific lysine acceptor residue in the BAP.
(§2) Blocking of Gαi•Gβ1γ2 binding was assessed by simultaneously adding 200 pM FITC-Gαi with or without SICK to 50 pM immobilized b-βγ and measuring the amount of FITC-Gαi bound to the beads by flow cytometry according to standard methods (Ghosh, et al. (2003) supra; Sarvazyan, et al. (1998) J. Biol. Chem. 273:7934-40).
(§3) Fluorescein-labeled Gαi1 (Fαi1) was prepared in accordance with standard methods (Sarvazyan, et al. (1998) supra). Assays were used to determine peptide effects on Gα-Gβγ interactions included competition and dissociation assays (Ghosh, et al. (2003) supra). […] The bead-associated fluorescence was then recorded in a BD Biosciences FACSCALIBUR™ flow cytometer. Data was corrected for background fluorescence and fit with a sigmoid dose response curve using Graph Pad Prism 4. […]

[2] = biological target: T2, Gβ1γ2 Arg314Ala (Rattus norvegicus, UniProt P54311, R314A); assay: Phage ELISA, b-βγ mutant Arg314Ala; type: binding; details: Gβ1γ2 Arg314Ala; phage displaying SIGK peptide
T2 construct: made in house; host or cells: Sf9 insect cells (baculovirus)
From the text: as §1, with “BAP. Using this approach, 1-2 mg protein of purified protein can be obtained per liter of Sf9 insect cells. As 45 ng of protein is used in the phage ELISA assay, a single purification is sufficient for 10,000 to 30,000 binding assays.” for “BAP.”
(§4) Phage ELISA assays used to assess peptide binding to wild-type and mutant b-βγ were performed according to standard methods (Smrcka and Scott (2002) Methods Enzymol. 344:557-76). Briefly, 1 μg streptavidin was immobilized in the well of a […] overnight at 4° C. The wells were blocked with 100 μL of 2% bovine serum albumin (BSA) in Tris-buffered saline (TBS) for 1 hour at 4° C. followed by three washes of 1×TBS/0.5% TWEEN®. Forty μL of 25 nM bGβ1γ2 in TBS/0.5% TWEEN® was added to each well and incubated at 4° C. for 1.5 hour. The wells were washed, followed by the addition of 1×10^6 to 1×10^10 phage particles and incubated at 4° C. for 3 hours. The wells were then washed six times with TBS/0.5% TWEEN® followed by addition of 40 μL of 1:5000 dilution of anti-M13 antibody (Pharmacia, Uppsala, Sweden) and incubated at room temperature for 1 hour. The wells were washed, followed by the addition of 40 μL of (2,2′-Azino-bis(3-ethylbenzthiazoline)-6-sulfonic acid (ABTS) and the colorimetric reaction was monitored at 405 nm. Non-specific binding was subtracted for each reading.
(§5) Both assays were then carried out with Gβ1γ2 heterodimers containing mutations in the Gβ1 subunit.
(§6) The nine peptides were selected to represent the different consensus groups of peptides previously identified (See Scott et al. (2001) supra; Table 9) and to compare binding characteristics within and between consensus groups. […] As disclosed herein, the binding signal obtained in the ELISA assay was correlated to a loss in affinity by comparing the results to behavior of the peptide in a solution based assay. […] For the purposes of present disclosure, any substitution that decreased the binding to less than 20% of the wild-type binding was considered to be a critical binding contact for that peptide.

[3] = biological target: T3, Gβ1γ2 Tyr145Ala (Rattus norvegicus, UniProt P54311, Y145A); assay: Phage ELISA, b-βγ mutant Tyr145Ala; type: binding; details: Gβ1γ2 Tyr145Ala; phage displaying SIGK peptide
T3 construct: made in house; host or cells: Sf9 insect cells (baculovirus)
From the text: as §1, with “BAP. Using this approach, 1-2 mg protein of purified protein can be obtained per liter of Sf9 insect cells. As 45 ng of protein is used in the phage ELISA assay, a single purification is sufficient for 10,000 to 30,000 binding assays.” for “BAP.”
as §4, §5, §6

[4] = biological target: T4, Gβ1γ2 His311Ala (Rattus norvegicus, UniProt P54311, H311A); assay: Phage ELISA, b-βγ mutant His311Ala; type: binding; details: Gβ1γ2 His311Ala; phage displaying SIGK peptide
T4 construct: made in house; host or cells: Sf9 insect cells (baculovirus)
From the text: as §1, with “BAP. Using this approach, 1-2 mg protein of purified protein can be obtained per liter of Sf9 insect cells. As 45 ng of protein is used in the phage ELISA assay, a single purification is sufficient for 10,000 to 30,000 binding assays.” for “BAP.”
as §4, §5, §6

[5] = biological target: T5, Gβ1γ2 His62Ala (Rattus norvegicus, UniProt P54311, H62A); assay: Phage ELISA, b-βγ mutant His62Ala; type: binding; details: phage displaying SIGK peptide
T5 construct: made in house; host or cells: Sf9 insect cells (baculovirus)
From the text: as §1, with “BAP. Using this approach, 1-2 mg protein of purified protein can be obtained per liter of Sf9 insect cells. As 45 ng of protein is used in the phage ELISA assay, a single purification is sufficient for 10,000 to 30,000 binding assays.” for “BAP.”
(§7) Phage ELISA assays used to assess peptide binding to wild-type and mutant b-βγ were performed according to standard methods (Smrcka and Scott (2002) Methods Enzymol. 344:557-76). Briefly, 1 μg streptavidin was immobilized in the well of a 96-six well plate overnight at 4° C. […] The wells were washed, followed by the addition of 40 μL of (2,2′-Azino-bis(3-ethylbenzthiazoline)-6-sulfonic acid (ABTS) and the colorimetric reaction was monitored at 405 nm. Non-specific binding was subtracted for each reading. […]

[6] = biological target: T6, Gβ1γ2 Trp99Ala (Rattus norvegicus, UniProt P54311, W99A); assay: Phage ELISA, b-βγ mutant Trp99Ala; type: binding
T6 construct: made in house; host or cells: Sf9 insect cells (baculovirus)
From the text: as §1, with “BAP. Using this approach, 1-2 mg protein of purified protein can be obtained per liter of Sf9 insect cells. As 45 ng of protein is used in the phage ELISA assay, a single purification is sufficient for 10,000 to 30,000 binding assays.” for “BAP.”
as §4, §5, §6

[7] = biological target: T7, Gβ1γ2 Trp332Ala (Rattus norvegicus, UniProt P54311, W332A); assay: Phage ELISA, b-βγ mutant Trp332Ala; type: binding; details: Gβ1γ2 Trp332Ala; phage displaying SIGK peptide
T7 construct: made in house; host or cells: Sf9 insect cells (baculovirus)
From the text: as §1, with “BAP. Using this approach, 1-2 mg protein of purified protein can be obtained per liter of Sf9 insect cells. As 45 ng of protein is used in the phage ELISA assay, a single purification is sufficient for 10,000 to 30,000 binding assays.” for “BAP.”
as §4, §5, §6

[8] = biological target: T8, Gβ1γ2 Phe292Ala (Rattus norvegicus, UniProt P54311, F292A); assay: Phage ELISA, b-βγ mutant Phe292Ala; type: binding; details: phage displaying SIGK peptide
T8 construct: made in house; host or cells: Sf9 insect cells (baculovirus)
From the text: as §1, with “BAP. Using this approach, 1-2 mg protein of purified protein can be obtained per liter of Sf9 insect cells. As 45 ng of protein is used in the phage ELISA assay, a single purification is sufficient for 10,000 to 30,000 binding assays.” for “BAP.”
as §7

[9] = biological target: T9, Gβ1γ2 Met188Ala (Rattus norvegicus, UniProt P54311, M188A); assay: Phage ELISA, b-βγ mutant Met188Ala; type: binding; details: Gβ1γ2 Met188Ala; phage displaying SIGK peptide
T9 construct: made in house; host or cells: Sf9 insect cells (baculovirus)
From the text: as §1, with “BAP. Using this approach, 1-2 mg protein of purified protein can be obtained per liter of Sf9 insect cells. As 45 ng of protein is used in the phage ELISA assay, a single purification is sufficient for 10,000 to 30,000 binding assays.” for “BAP.”
as §4, §5, §6

[10] = biological target: T10, Gβ1γ2 Met101Ala (Rattus norvegicus, UniProt P54311, M101A); assay: Phage ELISA, b-βγ mutant Met101Ala; type: binding; details: Gβ1γ2 Met101Ala; phage displaying SIGK peptide
T10 construct: made in house; host or cells: Sf9 insect cells (baculovirus)
From the text: as §1, with “BAP. Using this approach, 1-2 mg protein of purified protein can be obtained per liter of Sf9 insect cells. As 45 ng of protein is used in the phage ELISA assay, a single purification is sufficient for 10,000 to 30,000 binding assays.” for “BAP.”
as §4, §5, §6

[11] = biological target: T11, b-βγ Trp332Ala (Fαi1 binding) (Rattus norvegicus, UniProt P54311, W332A); assay: Flow cytometry competition for FITC-Gαi1 binding, b-βγ Trp332Ala; details: Log [SIGK] M −7
T11 construct: made in house; host or cells: Sf9 insect cells (baculovirus)
From the text: as §1, §2, §3

[12] = biological target: T12, Gβ1γ2 Asp246Ser (Rattus norvegicus, UniProt P54311, D246S); assay: Phage ELISA, b-βγ mutant Asp246Ser; type: binding; details: Gβ1γ2 Asp246Ser; phage displaying SIGK peptide
T12 construct: made in house; host or cells: Sf9 insect cells (baculovirus)
From the text: as §1, with “BAP. Using this approach, 1-2 mg protein of purified protein can be obtained per liter of Sf9 insect cells. As 45 ng of protein is used in the phage ELISA assay, a single purification is sufficient for 10,000 to 30,000 binding assays.” for “BAP.”
as §4, §5, §6

[13] = biological target: T13, b-βγ Arg314Ala (Fαi1 binding) (Rattus norvegicus, UniProt P54311, R314A); assay: Flow cytometry competition for FITC-Gαi1 binding, b-βγ Arg314Ala; details: Log [SIGK] M −7
T13 construct: made in house; host or cells: Sf9 insect cells (baculovirus)
From the text: as §1, §2, §3

[14] = biological target: T14, Gβ1γ2 Leu117Ala (Rattus norvegicus, UniProt P54311, L117A); assay: Phage ELISA, b-βγ mutant Leu117Ala; type: binding; details: Gβ1γ2 Leu117Ala; phage displaying SIGK peptide
T14 construct: made in house; host or cells: Sf9 insect cells (baculovirus)
From the text: as §1, with “BAP. Using this approach, 1-2 mg protein of purified protein can be obtained per liter of Sf9 insect cells. As 45 ng of protein is used in the phage ELISA assay, a single purification is sufficient for 10,000 to 30,000 binding assays.” for “BAP.”
as §4, §5, §6

[15] = biological target: T15, Gβ1γ2 Lys57Ala (Rattus norvegicus, UniProt P54311, K57A); assay: Phage ELISA, b-βγ mutant Lys57Ala; type: binding; details: Gβ1γ2 Lys57Ala; phage displaying SIGK peptide
T15 construct: made in house; host or cells: Sf9 insect cells (baculovirus)
From the text: as §1, with “BAP. Using this approach, 1-2 mg protein of purified protein can be obtained per liter of Sf9 insect cells. As 45 ng of protein is used in the phage ELISA assay, a single purification is sufficient for 10,000 to 30,000 binding assays.” for “BAP.”
as §4, §5, §6

## CC[C@H](C)[C@H](NC(=O)[C@H](CCCCN)NC(=O)[C@H](Cc1ccccc1)NC(=O)[C@H](C)NC(=O)[C@H](CCCCN)NC(=O)CNC(=O)[C@@H](NC(=O)[C@@H](N)CO)[C@@H](C)CC)C(=O)N[C@@H](CC(C)C)C(=O)NCC(=O)N[C@@H](Cc1ccc(O)cc1)C(=O)N1CCC[C@H]1C(=O)N[C@@H](CC(=O)O)C(=O)N[C@@H](Cc1ccc(O)cc1)C(=O)N[C@@H](CC(=O)O)C(=O)O [SIGK]
[1]
  % Maximal Fα Binding (± SD): 100.0 ± 0.0%
[2]
  % of Wild-Type Signal (mean ± SD): 50.2 ± 5.0%
[3]
  % of Wild-Type Signal (mean ± SD): 0.8 ± 0.9%
[4]
  % of Wild-Type Signal (mean ± SD): 94.3 ± 18.9%
[5]
  % of Wild-Type Signal (mean ± SD): 111.2 ± 11.3%
[6]; Gβ1γ2 Trp99Ala, phage displaying SIGK peptide
  % of Wild-Type Signal (mean ± SD): 66.0 ± 7.7%
[6]; Trp99 mutation of Gβ1
  decrease in affinity: 4 fold
[7]
  % of Wild-Type Signal (mean ± SD): 7.1 ± 3.7%
[8]
  % of Wild-Type Signal (mean ± SD): 109.1 ± 21.4%
[9]
  % of Wild-Type Signal (mean ± SD): 2.5 ± 3.7%
[10]
  % of Wild-Type Signal (mean ± SD): 32.2 ± 15.5%
[11]
  % Maximal Fα Binding (± SD): 100.0 ± 0.0%
[12]
  % of Wild-Type Signal (mean ± SD): 66.5 ± 7.5%
[13]
  % Maximal Fα Binding (± SD): 100.0 ± 0.0%
[14]
  % of Wild-Type Signal (mean ± SD): 2.1 ± 2.4%
[15]
  % of Wild-Type Signal (mean ± SD): 18.6 ± 4.6%
